Assay results: PubChem BioAssay AID720672 (NMMLSC, 2013)
Activity calls are given as the source filed them. How the calls were made is not given here.

These compounds were tested against Lethal factor (Bacillus anthracis) (UniProt P15917) (assay: Bacillus anthracis LF protease inhibitors, dose response, biochemical, multiplex microsphere (AID 720672)). Details: multiplex microsphere LF protease substrate cleavage, flow cytometry.
Chain of Lethal factor (Bacillus anthracis) (P15917 whole entry, looked up): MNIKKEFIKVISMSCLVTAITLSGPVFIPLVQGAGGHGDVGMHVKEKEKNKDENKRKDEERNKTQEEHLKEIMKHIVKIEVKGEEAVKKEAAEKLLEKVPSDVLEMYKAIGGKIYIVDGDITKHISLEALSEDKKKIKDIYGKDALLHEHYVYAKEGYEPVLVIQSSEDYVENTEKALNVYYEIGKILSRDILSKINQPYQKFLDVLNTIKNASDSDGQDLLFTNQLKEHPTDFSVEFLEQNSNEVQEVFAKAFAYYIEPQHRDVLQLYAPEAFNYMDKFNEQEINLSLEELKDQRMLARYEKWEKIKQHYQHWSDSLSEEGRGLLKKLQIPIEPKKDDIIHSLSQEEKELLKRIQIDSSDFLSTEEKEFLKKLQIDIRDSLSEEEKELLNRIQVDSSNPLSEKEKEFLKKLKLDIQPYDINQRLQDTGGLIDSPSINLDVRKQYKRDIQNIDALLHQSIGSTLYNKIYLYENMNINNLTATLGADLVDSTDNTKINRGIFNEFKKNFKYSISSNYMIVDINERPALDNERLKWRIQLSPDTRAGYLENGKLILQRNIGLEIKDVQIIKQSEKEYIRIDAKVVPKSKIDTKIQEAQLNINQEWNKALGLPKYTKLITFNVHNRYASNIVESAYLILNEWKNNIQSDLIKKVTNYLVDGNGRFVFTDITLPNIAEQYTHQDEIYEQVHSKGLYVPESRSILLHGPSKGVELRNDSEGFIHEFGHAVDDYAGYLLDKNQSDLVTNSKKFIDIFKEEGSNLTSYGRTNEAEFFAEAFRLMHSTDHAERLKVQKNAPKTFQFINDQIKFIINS

Structure (SMILES)	IC50
CCNC(=O)Nc1ccc2nc(-c3ccccc3)c(-c3ccccc3)nc2c1	> 20 µM (inactive)
O=C(Nc1ccc2nc(-c3ccccc3)c(-c3ccccc3)nc2c1)C1CCCCC1	> 20 µM (inactive)
O=C(Nc1ccc2nc(-c3ccccc3)c(-c3ccccc3)nc2c1)NC1CCCC1	> 20 µM (inactive)
CS(=O)(=O)c1ccc(-c2cn3nc(-c4ccc(F)cc4)c(-c4ccc(F)cc4)nc3n2)cc1	> 20 µM (inactive)
Fc1ccc(-c2nc3nc(-c4cccc(F)c4)cn3nc2-c2ccc(F)cc2)cc1	6.7 µM
N#Cc1ccc(-c2cn3nc(-c4ccccc4)c(-c4ccccc4)nc3n2)cc1	> 20 µM (inactive)
COc1ccc(-c2nc3nc(-c4ccccc4)cn3nc2-c2ccc(OC)cc2)cc1	6.3 µM
COc1ccccc1-c1cn2nc(-c3ccc(C)cc3)c(-c3ccc(C)cc3)nc2n1	12.9 µM
CC(C)(C)C(=O)Nc1ccc2nc(-c3ccccc3)c(-c3ccccc3)nc2c1	> 20 µM (inactive)
O=C(Nc1ccc2nc(-c3ccccc3)c(-c3ccccc3)nc2c1)OCc1ccccc1	> 20 µM (inactive)
Cc1ccc(-c2nc3nc(-c4ccc(F)cc4)cn3nc2-c2ccc(C)cc2)cc1	5.9 µM
COc1cccc(-c2cn3nc(-c4ccc(F)cc4)c(-c4ccc(F)cc4)nc3n2)c1	7.5 µM
CCCCOC(=O)Nc1ccc2nc(-c3ccccc3)c(-c3ccccc3)nc2c1	> 20 µM (inactive)
Fc1ccc(-c2cn3nc(-c4ccc(F)cc4)c(-c4ccc(F)cc4)nc3n2)cc1	4 µM
O=C(Nc1ccc2nc(-c3cccs3)c(-c3cccs3)nc2c1)C1CCC1	> 20 µM (inactive)
COc1ccc(-c2cn3nc(-c4ccc(F)cc4)c(-c4ccc(F)cc4)nc3n2)c(OC)c1	2.9 µM
O=S(=O)(Nc1ccc2nc(-c3ccccc3)c(-c3ccccc3)nc2c1)C1CC1	> 20 µM (inactive)
Cc1ccc(-c2cn3nc(-c4ccc(F)cc4)c(-c4ccc(F)cc4)nc3n2)cc1	7.2 µM
COc1ccc(-c2nc3nc(-c4ccc(C#N)cc4)cn3nc2-c2ccc(OC)cc2)cc1	> 20 µM (inactive)
COc1ccccc1-c1cn2nc(-c3ccccc3)c(-c3ccccc3)nc2n1	> 20 µM (inactive)
O=S(=O)(Nc1ccc2nc(-c3cccs3)c(-c3cccs3)nc2c1)C1CC1	> 20 µM (inactive)

Structure (SMILES)	IC50
O=C(Nc1ccc2nc(-c3cccs3)c(-c3cccs3)nc2c1)C1CC1	> 20 µM (inactive)
COc1ccc(-c2nc3nc(-c4ccccc4OC)cn3nc2-c2ccc(OC)cc2)cc1	6.1 µM
CCNC(=S)Nc1ccc2nc(-c3ccccc3)c(-c3ccccc3)nc2c1	> 20 µM (inactive)
COC(=O)Nc1ccc2nc(-c3cccs3)c(-c3cccs3)nc2c1	> 20 µM (inactive)
CCNC(=O)Nc1ccc2nc(-c3cccs3)c(-c3cccs3)nc2c1	16.3 µM
Cc1ccc(-c2nc3nc(-c4ccc(S(C)(=O)=O)cc4)cn3nc2-c2ccc(C)cc2)cc1	> 20 µM (inactive)
CS(=O)(=O)c1ccc(-c2cn3nc(-c4ccccc4)c(-c4ccccc4)nc3n2)cc1	> 20 µM (inactive)
CCCOC(=O)Nc1ccc2nc(-c3cccs3)c(-c3cccs3)nc2c1	> 20 µM (inactive)
COc1ccc(-c2nc3nc(-c4ccc(OC)cc4OC)cn3nc2-c2ccc(OC)cc2)cc1	> 20 µM (inactive)
Cc1ccc(-c2nc3nc(-c4ccccc4)cn3nc2-c2ccc(C)cc2)cc1	6.8 µM
CC(C)CS(=O)(=O)Nc1ccc2nc(-c3ccccc3)c(-c3ccccc3)nc2c1	> 20 µM (inactive)
CCCNC(=O)Nc1ccc2nc(-c3ccccc3)c(-c3ccccc3)nc2c1	> 20 µM (inactive)
CC(C)OC(=O)Nc1ccc2nc(-c3cccs3)c(-c3cccs3)nc2c1	> 20 µM (inactive)
CC(C)NC(=O)Nc1ccc2nc(-c3cccs3)c(-c3cccs3)nc2c1	> 20 µM (inactive)
COC(=O)Nc1ccc2nc(-c3ccccc3)c(-c3ccccc3)nc2c1	> 20 µM (inactive)
Cc1ccc(-c2nc3nc(-c4cccc(F)c4)cn3nc2-c2ccc(C)cc2)cc1	3.7 µM
COc1cccc(-c2cn3nc(-c4ccc(C)cc4)c(-c4ccc(C)cc4)nc3n2)c1	4.3 µM
COc1ccccc1-c1cn2nc(-c3ccc(F)cc3)c(-c3ccc(F)cc3)nc2n1	5.4 µM
Clc1ccc(-c2cn3nc(-c4ccccc4)c(-c4ccccc4)nc3n2)c(Cl)c1	> 20 µM (inactive)
COc1ccc(-c2nc3nc(-c4cccc(OC)c4)cn3nc2-c2ccc(OC)cc2)cc1	10.1 µM
COc1ccc(-c2nc3nc(-c4ccc(F)cc4)cn3nc2-c2ccc(OC)cc2)cc1	3.1 µM

Structure (SMILES)	IC50
CC(Oc1ccccc1)C(=O)Nc1ccc2nc(-c3ccccc3)c(-c3ccccc3)nc2c1 (configuration not stated)	> 20 µM (inactive)
O=C(Nc1ccc2nc(-c3cccs3)c(-c3cccs3)nc2c1)NC1CCCC1	> 20 µM (inactive)
COc1ccc(-c2cn3nc(-c4ccc(F)cc4)c(-c4ccc(F)cc4)nc3n2)cc1	6.5 µM
CC(C)NC(=O)Nc1ccc2nc(-c3ccccc3)c(-c3ccccc3)nc2c1	> 20 µM (inactive)
CC(=O)Nc1ccc2nc(-c3ccccc3)c(-c3ccccc3)nc2c1	> 20 µM (inactive)
CCCS(=O)(=O)Nc1ccc2nc(-c3cccs3)c(-c3cccs3)nc2c1	> 20 µM (inactive)
N#Cc1ccc(-c2cn3nc(-c4ccc(F)cc4)c(-c4ccc(F)cc4)nc3n2)cc1	> 20 µM (inactive)
CC(C)(C)NC(=O)Nc1ccc2nc(-c3ccccc3)c(-c3ccccc3)nc2c1	> 20 µM (inactive)
O=C(Nc1ccc2nc(-c3ccccc3)c(-c3ccccc3)nc2c1)C1CC1	> 20 µM (inactive)
COc1ccc(-c2cn3nc(-c4ccc(C)cc4)c(-c4ccc(C)cc4)nc3n2)cc1	> 20 µM (inactive)
CC(C)OC(=O)Nc1ccc2nc(-c3ccccc3)c(-c3ccccc3)nc2c1	> 20 µM (inactive)
COc1cccc(-c2cn3nc(-c4ccccc4)c(-c4ccccc4)nc3n2)c1	15.2 µM
O=C(Nc1ccc2nc(-c3ccccc3)c(-c3ccccc3)nc2c1)C1CCC1	> 20 µM (inactive)
CCC(=O)Nc1ccc2nc(-c3ccccc3)c(-c3ccccc3)nc2c1	> 20 µM (inactive)
O=C(Nc1ccc2nc(-c3ccccc3)c(-c3ccccc3)nc2c1)C1CCCC1	> 20 µM (inactive)
COc1ccc(-c2nc3nc(-c4ccc(OC(F)(F)F)cc4)cn3nc2-c2ccc(OC)cc2)cc1	3.7 µM
FC(F)(F)Oc1ccc(-c2cn3nc(-c4ccccc4)c(-c4ccccc4)nc3n2)cc1	17.9 µM
CCCS(=O)(=O)Nc1ccc2nc(-c3ccccc3)c(-c3ccccc3)nc2c1	> 20 µM (inactive)
Cc1ccc(-c2cn3nc(-c4ccc(C)cc4)c(-c4ccc(C)cc4)nc3n2)cc1	5.1 µM
CC(C)CS(=O)(=O)Nc1ccc2nc(-c3cccs3)c(-c3cccs3)nc2c1	> 20 µM (inactive)
Cc1ccc(-c2nc3nc(-c4ccc(C#N)cc4)cn3nc2-c2ccc(C)cc2)cc1	> 20 µM (inactive)

Structure (SMILES)	IC50
CCC(=O)Nc1ccc2nc(-c3cccs3)c(-c3cccs3)nc2c1	> 20 µM (inactive)
Fc1ccc(-c2cn3nc(-c4ccccc4)c(-c4ccccc4)nc3n2)cc1	> 20 µM (inactive)
COc1ccc(-c2cn3nc(-c4ccccc4)c(-c4ccccc4)nc3n2)c(OC)c1	> 20 µM (inactive)
Fc1cccc(-c2cn3nc(-c4ccccc4)c(-c4ccccc4)nc3n2)c1	11.5 µM
CCOC(=O)Nc1ccc2nc(-c3cccs3)c(-c3cccs3)nc2c1	> 20 µM (inactive)
O=C(Nc1ccc2nc(-c3cccs3)c(-c3cccs3)nc2c1)OCc1ccccc1	> 20 µM (inactive)
COc1ccc(-c2nc3nc(-c4ccc(C)cc4)cn3nc2-c2ccc(OC)cc2)cc1	> 20 µM (inactive)
Fc1ccc(-c2nc3nc(-c4ccc(OC(F)(F)F)cc4)cn3nc2-c2ccc(F)cc2)cc1	> 20 µM (inactive)
CCOC(=O)Nc1ccc2nc(-c3ccccc3)c(-c3ccccc3)nc2c1	> 20 µM (inactive)
COc1ccc(-c2cn3nc(-c4ccc(C)cc4)c(-c4ccc(C)cc4)nc3n2)c(OC)c1	> 20 µM (inactive)
COc1ccc(-c2nc3nc(-c4ccc(S(C)(=O)=O)cc4)cn3nc2-c2ccc(OC)cc2)cc1	> 20 µM (inactive)
O=C(Nc1ccc2nc(-c3cccs3)c(-c3cccs3)nc2c1)C1CCCC1	> 20 µM (inactive)
Fc1ccc(-c2nc3nc(-c4ccccc4)cn3nc2-c2ccc(F)cc2)cc1	9.6 µM
COc1ccc(-c2nc3nc(-c4cccc(F)c4)cn3nc2-c2ccc(OC)cc2)cc1	5.5 µM
CCS(=O)(=O)Nc1ccc2nc(-c3ccccc3)c(-c3ccccc3)nc2c1	> 20 µM (inactive)
CCCOC(=O)Nc1ccc2nc(-c3ccccc3)c(-c3ccccc3)nc2c1	> 20 µM (inactive)
Cc1ccc(-c2nc3nc(-c4ccc(OC(F)(F)F)cc4)cn3nc2-c2ccc(C)cc2)cc1	> 20 µM (inactive)
COc1ccc(-c2cn3nc(-c4ccc(OC)cc4)c(-c4ccc(OC)cc4)nc3n2)cc1	> 20 µM (inactive)
CCCCOC(=O)Nc1ccc2nc(-c3cccs3)c(-c3cccs3)nc2c1	16.4 µM
